In patent US20240335431A1, “1-H-PYRROLO[2,3-c]PYRIDINE COMPOUNDS” (Acerta Pharma B.V., priority 2023, published 2024):
Like-named read-outs stand apart in the source and are kept apart here.

What was measured:
hERG [1] = target: T1, hERG (Homo sapiens (Human), UniProt Q12809); test: hERG assay 1 (standard), SyncroPatch 384PE; assay type: cell-based; details: CHO cells, room temperature, up to 40 uM
Experimental: Experiments were performed on the SyncroPatch 384PE (Nanion Technologies) high throughput patch clamp platform at room temperature and used medium resistance chips with 4 patch holes per site. hERG-expressing Chinese hamster ovary K1 (CHO) cell line was used in assay-ready format and kept in liquid nitrogen until use. 2 vials of cells (10×10^6 cells per vial) were thawed and added to 20 ml Hepes-buffered saline solution (HBSS). HBSS comprised 140 mM NaCl, 4 mM KCl, 10 mM HEPES and 5 mM Glucose (pH 7.4). The internal patch clamp solution was KF 120 mM, KCl 20 mM, HEPES 10 mM, EGTA 10 mM, and 25 μM Escin (pH 7.2). After the initial sealing process was complete, a seal enhancer solution comprising HBSS supplemented with 10 mM CaCl2 and 1 mM MgCl2 was applied to cells. The external solution was then exchanged (4 times) for external patch clamp solution comprising NaCl 80 mM, KCl 4 mM, HEPES 10 mM, CaCl2 2 mM, MgCl2 1 mM, glucose 5 mM, and NMDG 60 mM (pH7.4). All compounds were dispensed from initial 10 mM DMSO stocks. An industry standard +60/−40 mV voltage protocol was applied every 15 seconds. Compounds were tested in a 6-point cumulative assay (final DMSO concentration 0.33%), with a concentration range of 139 nM to 40 uM. Data were analyzed in Genedata Screener®. IC50 values were determined by plotting % inhibition versus log compound concentration and using a one site dose response model. Only wells that passed acceptance criteria for this platform were used in this analysis (30 MegaOhm seal resistance, Z prime >0.4 and current size >0.2 nA).

MOLM-13 cells = test: Proliferation assay, MOLM-13 (CellTiter-Glo, 7 days); assay type: cell-based, human
Experimental: (§1) The anti-proliferative effect of compounds was tested in human leukaemia cell lines. The cell lines […] and MV4; 11 each harbor an MLL translocation expressing the MLL fusion proteins MLL-AF9 and MLL-AF4, respectively. Each also express the wildtype protein from the second allele. OCI-AML3 cells carrying the NPM1c gene mutation were also tested.
(§2) MOLM-13 and HEL cells were cultured in RPMI 1640 (Gibco) supplemented with 10% FBS (Gibco) and 1% Pen/Strep (Gibco). MV4; 11 cells were cultured in IMDM (Gibco) supplemented with 10% FBS (Gibco) and 1% Pen/Strep (Gibco). OCI-AML3 cells were cultured in MEMa (Gibco) supplemented with 20% FBS (Gibco) and 1% Pen/Strep (Gibco).
(§3) To assess proliferative effects, 125 MOLM-13 cells, 300 MV4; 11 cells, 75 OCI-AML3 cells, and 200 HEL cells were seeded in 40 μL media per well in 384-well ViewPlates (Perkin Elmer, 6007480). Cell seeding numbers were chosen based on growth curves to ensure linear growth throughout the experiments. Test compounds were added at 3.16-fold serial dilutions in DMSO from […] and DMSO content was normalized to 0.1%. Cells were incubated for 7 days at 37° C. and 5% CO2. A day 0 plate was seeded for each cell line and used as a standard control.
(§4) To measure cell viability, CellTiter-Glo 2.0 (Promega, G9242) luminescent growth indicator was used. 10 μL CellTiter-Glo reagent was added per well. Plates were placed on a plate shaker for 2 minutes in the dark and left to incubate off the shaker for another 8 minutes in the dark, for a total of 10 minutes. Plates were read using an EnVision plate reader (Perkin Elmer) using the Luminescence aperture and a measurement time of 0.1 second.
(§5) Data were analyzed in Genedata Screener®. IC50 values were determined by plotting % inhibition versus log compound concentration and using a one site dose response model. Raw data signals were normalized using 0.1% DMSO media only as background control, 0.1% DMSO with cells no compound as 100% viability (maximum signal), and day 0 0.1% DM with cells no compound as 0% viability (minimum signal).

hERG [2] = target: T1, hERG; test: hERG assay 2, QPatch II 48X, room temperature; assay type: cell-based; details: hERG DUO cell line, top 200 μM
Experimental: Experiments were performed on the QPatch II 48X (Sophion Biosciences) high throughput patch clamp platform at room temperature and used single hole Qplates. hERG DUO cell line (BSys) was used. The internal patch clamp solution was KF 60 mM, KCl 70 mM, HEPES 10 mM, EGTA 10 mM, and 5 mM Mg ATP (pH7.2). After sealing and whole cell access was gained the external solution (NaCl 140 mM, KCl 4 mM, HEPES 10 mM, CaCl2 2 mM, MgCl2 1 mM, glucose 5 mM (pH 7.4) was applied twice to establish stable baseline currents. An industry standard +40/−40 mV voltage protocol was applied every 15 seconds. All compounds were tested in a 6-point cumulative assay (final DMSO concentration 0.4-2% depending on stock concentration of compounds). Compounds were dispensed from initial 10 mM or 50 mM DMSO stocks after which DMSO dilutions were undertaken with a top concentration of 200 μM tested. Solvent controls were run in all experiments in line with the DMSO % required. Only wells that passed acceptance criteria for this platform were used in this analysis (500 MegaOhm seal resistance and current size >0.2 nA). Analysis was completed in Prism Graphpad to complete a composite IC50, by plotting % inhibition versus log compound concentration and using a log(inhibitor) vs. response—Variable slope.

HEL cells = test: Proliferation assay, HEL control cell line (CellTiter-Glo, 7 days); assay type: cell-based, human; details: Homo sapiens, HEL, 168 h
Experimental: as §1, §2, §3, §4, §5

[3] = Human liver microsomes (HLMs) intrinsic clearance assay; assay type: in vitro ADME; details: for microsomal CLint at 1 µM: human, microsomes, pH 7.4, HLM CLint
Experimental: Human liver microsomes (HLMs) were obtained from Corning (UltraPool 150 donors) at a concentration of 20 mg/mL protein. HLMs were stored at −80° C. until use and prior to use, thawed in a 37° C. water bath and then stored on wet ice. DMSO and NADPH were sourced from Solarbio S&T Co Ltd.
2 mL of 10 mM DMSO stock solutions of test compound were added to 198 mL acetonitrile to produce […] concentration. 1325 mL of 20 mg/mL HLM were added to 22260 mL of phosphate buffer to produce the HLM mixture. An 8.334 mg/mL solution of NADPH was prepared in 100 mmol/L pH 7.4 phosphate buffer.
222.5 mL of the HLM mixture and 25 mL of the 10 mM NADPH were added into the incubation plates (1 mL 96 well deep well plate from Thermo). The mixture was vortexed for 10 seconds at 1000 rpm. The incubation plate was pre-warmed in a water bath at 37° C. for 8 minutes. 2.5 mL of the […] stocks of test compound was added to initiate the reaction. The mix was vortexed for 12 seconds at 1000 rpm and incubated at 37° C. The incubation mixture (250 mL) contained 1 mg/mL HLM, 1 mmol/L NADPH and […].
The reaction was quenched by transferring 20 mL of the incubation mixture at 0.5, 5, 10, 15, 20 and 30 minutes into the quenching plate containing 100 mL of cold stop solution (acetonitrile containing internal standards). The plate was vortexed at 800 rpm for 2 minutes.
The quenching plates were centrifuged for 20 minutes at 4000 rpm and 4° C. 40 mL of the supernatant was transferred into a 96-well analysis plate containing 160 mL of water. The analysis plate was shaken at 1000 rpm for 2 minutes and the samples analysed by LC-MS/MS.
Peak areas were determined from extracted ion chromatograms. Percent parent remaining was calculated from peak area of test compound. The slope value, k, was determined by linear regression of the natural logarithm of percent parent remaining versus incubation time. The in vitro half-life (t1/2) was determined from the slope value by the equation: […]
Conversion of the in vitro half-life (min) into in vitro CLint (mL/min/mg proteins) was completed using the equation: […]

MV4;11 cells = test: Proliferation assay, MV4;11 (CellTiter-Glo, 7 days); assay type: cell-based, human; details: read-out: MV-4-11 IC50
Experimental: as §1, §2, §3, §4, §5

[4] = Caco-2 cell monolayers intrinsic permeation assay in the presence of efflux inhibitors; assay type: in vitro ADME; details: Caco-2, with efflux inhibitors
From the text: Caco-2 cells were obtained from American Type Culture Collection (ATCC). HEPES, penicillin, streptomycin, bovine serum albumin (BSA) were obtained from Beijing Xinjingke Biotechnology Co, Ltd. Fetal bovine serum, Hank's balanced salt solution (HBSS) and non-essential amino acids (NEAA) were purchased from Gibco. Dulbecco's Modified Eagle's Medium (DMEM) was purchased from Corning and MES from Sigma. HTS Transwell-24 permeable supports were purchased from Corning. Zosuquidar and Ko-143 were obtained from MedChemExpress and Benzbromarone from Sigma.
The Caco-2 cell culture medium consisted of DMEM with high glucose and L-glutamine supplemented with 10% FBS, 0.1 mg/mL streptomycin, 100 units of penicillin, 0.6 mg/mL kanamycin sulfate and 1×NEAA. […] culture medium was added to each Transwell insert with 800 mL added to each well of the reservoir. After incubation at 37° C. in 5% CO2 for 1 hour, the plates were ready for seeding.
The cells were cultivated in T-75 flasks at 37° C., 5% CO2, 95% relative humidity. At 80 to 90% confluence, cells were treated with trypsin/EDTA treatment until they became detached. The trypsin/EDTA was inactivated by adding excess serum containing medium. The cell suspension was centrifuged at 120 g for 10 minutes followed by resuspension of the cell pellet in seeding medium at a cell density of 7.92×10^5 cells/mL.
[…] of the resulting cell suspension was added to each well of the Transwell plate and incubated for 14 to 18 days, with medium replaced every other day. After incubation for 14 to 18 days, the cells should have reached confluence and should be tested for electrical resistance using a Millicel Epithelial Volt-Ohm measuring system (Millipore).
The cell monolayers were washed twice with pre-warmed HBSS and incubated at 37° C. for 30 minutes under gentle shaking (480 rpm).
The compound under test was presented as a 10 mM DMSO stock solution. 2 mL of the 10 mM stock was added to 8 mL DMSO to produce a 2 mM stock. 2 mL was added to 398 mL of HBSS containing 10 mM Zosuquidar, 30 mM Benzbromarone and 2 mM KO-143 to make a […] solution.
210 mL of the test compound solution was added to the apical compartment of the Transwell plate, with a 10 mL sample taken to act as the time 0 sample. The wells of the receiver (basolateral) compartment were filled with 800 mL HBSS (containing the efflux inhibitors). The plates were incubated at 37° C. with shaking at 480 rpm for 120 minutes with sampling at 45 and 120 minutes.
At each sampling time (0, 45 and 120 minutes) 10 mL was removed from the apical compartment and add to 90 mL (HBSS containing the efflux inhibitors). 100 mL was removed from each basolateral compartment. 3 volumes of cold acetonitrile containing internal standard was added to each sample and vortex mixed for 10 minutes at 100 rpm. Samples were then centrifuged at 400 rpm for 20 minutes. 50 mL of the supernatant was taken for LC/MS/MS analysis to determine compound concentration.
The apparent permeability (Papp), in units of centimetre per second, were calculated for Caco-2 drug transport using the following equation: […]
Where CR is the concentration of compound in the receiver side at the respective time point, CD is the concentration of compound in the donor side at the respective timepoint. Area is the surface area of the membrane and time is 4500 seconds (75×60 seconds).

OCI-AML3 cells = test: Proliferation assay, OCI-AML3 (CellTiter-Glo, 7 days); assay type: cell-based, human; details: Homo sapiens, OCI-AML-3, 168 h
Experimental: as §1, §2, §3, §4, §5

T1 sequence (Q12809 whole entry): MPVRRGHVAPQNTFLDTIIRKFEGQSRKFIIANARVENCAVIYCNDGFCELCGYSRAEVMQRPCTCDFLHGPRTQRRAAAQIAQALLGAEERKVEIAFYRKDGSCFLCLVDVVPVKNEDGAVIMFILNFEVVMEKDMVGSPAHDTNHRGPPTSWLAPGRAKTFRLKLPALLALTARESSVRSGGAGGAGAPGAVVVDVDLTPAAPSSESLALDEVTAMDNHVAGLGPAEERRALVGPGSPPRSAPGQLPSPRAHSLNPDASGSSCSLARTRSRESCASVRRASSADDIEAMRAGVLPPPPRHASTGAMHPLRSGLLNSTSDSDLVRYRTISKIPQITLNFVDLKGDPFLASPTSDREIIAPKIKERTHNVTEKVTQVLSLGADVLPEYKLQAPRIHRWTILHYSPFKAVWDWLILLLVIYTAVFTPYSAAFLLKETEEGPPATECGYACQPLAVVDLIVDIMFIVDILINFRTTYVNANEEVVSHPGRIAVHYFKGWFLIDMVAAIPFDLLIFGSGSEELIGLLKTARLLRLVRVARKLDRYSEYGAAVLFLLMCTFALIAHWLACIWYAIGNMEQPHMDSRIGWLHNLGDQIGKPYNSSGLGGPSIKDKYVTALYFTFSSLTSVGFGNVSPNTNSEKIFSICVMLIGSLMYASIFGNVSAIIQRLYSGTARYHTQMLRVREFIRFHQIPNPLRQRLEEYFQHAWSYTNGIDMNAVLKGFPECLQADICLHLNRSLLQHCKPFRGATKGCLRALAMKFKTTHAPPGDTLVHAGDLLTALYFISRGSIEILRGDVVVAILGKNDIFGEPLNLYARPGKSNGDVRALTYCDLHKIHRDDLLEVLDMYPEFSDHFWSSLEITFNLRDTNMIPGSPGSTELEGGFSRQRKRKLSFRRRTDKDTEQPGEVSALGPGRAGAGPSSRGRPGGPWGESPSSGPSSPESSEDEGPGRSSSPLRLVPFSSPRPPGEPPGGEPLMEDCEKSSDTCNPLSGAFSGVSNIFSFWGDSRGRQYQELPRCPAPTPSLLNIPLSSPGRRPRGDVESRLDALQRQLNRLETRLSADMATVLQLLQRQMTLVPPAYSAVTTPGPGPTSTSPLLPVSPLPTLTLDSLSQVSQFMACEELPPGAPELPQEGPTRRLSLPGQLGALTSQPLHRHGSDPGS

| IC50 (MOLM-13 cells; Homo sapiens, MOLM-13, 168 h) [nM] | Papp A→B [4] [×10⁻⁶ cm/s] | microsomal CLint at 1 µM [3] [µL/min/mg] | IC50 (MV4;11 cells; Homo sapiens, MV4-11, 168 h) [nM] | IC50 (OCI-AML3 cells) [nM] | Structure (SMILES) | IC50 (hERG [1]) [nM] | IC50 (MOLM-13 cells) [nM] | IC50 (hERG [2]) [nM] | IC50 (HEL cells) [nM] | HLM CLint ([3]; 1 mg/mL HLM, NADPH) [µL/min/mg] | IC50 (MV4;11 cells) [nM] |
| --- | --- | --- | --- | --- | --- | --- | --- | --- | --- | --- | --- |
| – | – | – | – | – | CCN(C(=O)c1cc(F)ccc1-n1c(C)c(C(=O)C2CCN(C(=O)[C@@H]3CCC4(CC4)N3)CC2)c2ccncc21)C(C)C (single isomer, unassigned) [Example 49-1] | > 40000 | 2290 | > 200000 | > 10000 | >300 | 2950 |
| 154 | 0.4 | 18 | 144 | 275 | C[C@@H]1CC[C@H](C)N1C(=O)c1cc(F)ccc1-n1cc(C(=O)C2CCN(C(=O)[C@H]3N[C@@H]4CC[C@H]3C4)CC2)c2ccncc21 [Example 32, (1-((1R,3S,4S)-2-Azabicyclo[2.2.1]heptane-3-carbonyl)piperidin-4-yl)(1-(2-((2R,5S)-2,5-dimethylpyrrolidine-1-carbonyl)-4-fluorophenyl)-1H-pyrrolo[2,3-c]pyridin-3-yl)methanone] | – | – | – | > 10000 | – | – |
| 65 | – | 259 | 31 | 47 | CC(C)c1ccccc1-c1cc(F)ccc1-n1cc(C(=O)C2CCN(C(=O)[C@H]3N[C@@H]4CC[C@H]3C4)CC2)c2ccncc21 [Example 39, (1-((1R,3S,4S)-2-Azabicyclo[2.2.1]heptane-3-carbonyl)piperidin-4-yl)(1-(5-fluoro-2′-isopropyl-[1,1′-biphenyl]-2-yl)-1H-pyrrolo[2,3-c]pyridin-3-yl)methanone] | – | – | – | 6900 | – | – |
